Usually IC50 stands for the concentration at which inhibition is half-maximal. A low value points to higher potency.

Drawing on patent US20100190788A1, “Amide derivatives as kinase inhitors” (priority 2005, published 2010), this text covers IC50 for 33 compounds.

For this assay, the target named is T1, human ROCKα/ROCKII mix (Homo sapiens, UniProt O75116).
T1 construct: purchased Upstate Biotechnology 14-451
Kind of assay: ROCK inhibition, fluorescence polarization (FP) assay with ROCK IMAP Kit. In kind it is biochemical. On the procedure:
The compounds were tested for inhibition of human ROCKα/ROCKII mix.
The inhibition assays were performed with a fluorescence polarization (FP) assay using the commercially available ROCK IMAP Kit from Molecular Devices (Product ID. No. R8093), essentially in accordance with the protocol supplied by the manufacturer. […] The enzyme mix ROCKα/ROCKII was obtained from Upstate Biotechnology (Product ID No 14-451).
In summary, all compounds were screened in the wells of a 384 well plate for enzymatic inhibition with concentrations varying from 100 μM to 0.3 nM using a stepwise 3 (or 2)-fold dilution.
To perform the assay, 1 μl of a solution of the compound to be tested in DMSO (at each concentration) was added to 2 μl of a solution of the enzyme in 10 mM Tris-HCl, 10 mM MgCl2, 0.1% BSA, 0.05% NaN3, pH 7.2. The final concentration of the enzyme was 2.6 nM.
After incubating for 30 minutes at RT, 2 μl of a mixture of ATP and the protein substrate in 10 mM Tris-HCl, 10 mM MgCl2, 0.1% BSA, 0.05% NaN3, pH 7.2 was added. The final concentration of the ATP was 10 μM and final concentration of protein substrate was 0.2 μM.
After incubating for 60 minutes at RT, 12 μl of the IMAP Binding Solution (mix of the IMAP Binding Buffer A (1×) and the IMAP Binding Reagent (from the ROCK IMAP kit)) was added.
The mixture thus obtained (total volume: 17 μl) was incubated for 60 minutes at RT, upon which the fluorescence polarization was measured using an automated plate reader (Perkin Elmer, Model Envision 2100-0010 HTS) with FP filters: excitation filter FITC FP 480 and emission filters FITC FP P-pol 535 and FITC FP S-pol 535 (Perkin-Elmer). The results were fitted to a curve using the XL-Fit algorithm and IC50 values were calculated for each fitted curve, again using the XL-Fit algorithm.
(In general: Polarisation of emitted light reports the rotation of a fluorescent probe.)

Where [1] appears, read: Table 2, compounds of Formula V20.
The mark [2] stands for this setting: Table 1, compounds of Formula IV20.
[3] abbreviates: Table 3, compounds of Formula III20.

Where a name gives a salt, the structure may show the parent alone. Bounds are passed on as bounds.

T1 sequence (O75116 whole entry): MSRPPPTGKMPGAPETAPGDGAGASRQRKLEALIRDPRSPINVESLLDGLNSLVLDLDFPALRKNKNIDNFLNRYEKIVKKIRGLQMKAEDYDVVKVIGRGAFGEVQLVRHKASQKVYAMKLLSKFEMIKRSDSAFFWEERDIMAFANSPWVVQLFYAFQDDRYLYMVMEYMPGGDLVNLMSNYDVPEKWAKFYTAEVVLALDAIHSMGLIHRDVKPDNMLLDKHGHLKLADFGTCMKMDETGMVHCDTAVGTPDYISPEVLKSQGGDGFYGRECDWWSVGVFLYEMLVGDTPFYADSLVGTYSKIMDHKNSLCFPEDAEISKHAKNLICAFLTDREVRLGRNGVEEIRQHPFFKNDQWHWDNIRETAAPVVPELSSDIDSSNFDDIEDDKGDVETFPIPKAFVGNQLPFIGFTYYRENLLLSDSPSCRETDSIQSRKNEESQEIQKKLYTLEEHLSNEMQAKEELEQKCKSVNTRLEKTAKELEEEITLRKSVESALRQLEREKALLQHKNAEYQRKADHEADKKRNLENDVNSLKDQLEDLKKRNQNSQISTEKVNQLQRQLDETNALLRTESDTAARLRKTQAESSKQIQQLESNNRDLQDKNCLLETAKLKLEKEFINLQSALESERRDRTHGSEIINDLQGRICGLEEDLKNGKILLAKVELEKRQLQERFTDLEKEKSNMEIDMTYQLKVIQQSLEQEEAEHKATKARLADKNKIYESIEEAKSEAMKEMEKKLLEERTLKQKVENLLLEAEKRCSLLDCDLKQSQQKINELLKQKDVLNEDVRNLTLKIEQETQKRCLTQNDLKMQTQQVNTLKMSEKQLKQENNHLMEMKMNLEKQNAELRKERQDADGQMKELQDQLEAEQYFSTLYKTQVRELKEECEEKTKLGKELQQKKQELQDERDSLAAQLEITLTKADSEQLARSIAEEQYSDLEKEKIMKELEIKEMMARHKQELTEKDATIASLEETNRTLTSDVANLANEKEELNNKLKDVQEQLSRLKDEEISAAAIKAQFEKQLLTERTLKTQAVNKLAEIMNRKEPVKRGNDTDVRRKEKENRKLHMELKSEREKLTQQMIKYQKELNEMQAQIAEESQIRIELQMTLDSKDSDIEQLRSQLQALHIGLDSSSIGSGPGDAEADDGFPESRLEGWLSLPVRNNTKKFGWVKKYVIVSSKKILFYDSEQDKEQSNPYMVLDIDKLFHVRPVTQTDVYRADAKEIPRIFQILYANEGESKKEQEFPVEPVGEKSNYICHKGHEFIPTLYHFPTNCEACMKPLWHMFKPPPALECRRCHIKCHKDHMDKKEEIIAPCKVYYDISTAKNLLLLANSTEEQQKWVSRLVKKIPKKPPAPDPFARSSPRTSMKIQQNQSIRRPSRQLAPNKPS

`CCCS(=O)(=O)NCC(N)c1ccc(C(=O)Nc2ccncc2)cc1` (stereo not drawn) [Compound 57, 4-[1-amino-2-(propane-1-sulfonylamino)-ethyl]-N-pyridin-4-yl-benzamide] came in with an IC50 under setting [1] of less than 0.5 µM.

With `NC(C(=O)N1CCN(CCO)CC1)c1ccc(C(=O)Nc2ccncc2)cc1` (stereo not drawn) [Compound 52, 4-{1-amino-2-[4-(2-hydroxy-ethyl)-piperazin-1-yl]-2-oxo-ethyl}-N-pyridin-4-yl-benzamide], under setting [2], the IC50 is 0.5 to 5 µM.

Under setting [3], `COc1ccc(CN2CCN(C(=O)CC(N)c3ccc(C(=O)Nc4ccncc4)cc3)CC2)cc1` (stereo not drawn) [Compound 121, 4-{1-Amino-3-[4-(4-methoxy-benzyl)-piperazin-1-yl]-3-oxo-propyl}-N-pyridin-4-yl-benzamide] came in with an IC50 of 0.5 to 5 µM.

Take “4-[1-amino-2-(1-methyl-piperidin-1-yl)-2-oxo-ethyl]-N-pyridin-4-yl-benzamide [Compound 26]”: under setting [2], the half-inhibitory concentration (IC50) was less than 0.5 µM.

On to `NC(C(=O)NCCn1ccnc1)c1ccc(C(=O)Nc2ccncc2)cc1` (stereo not drawn) [Compound 19, 4-[amino-(2-imidazol-1-yl-ethylcarbamoyl)-methyl]-N-pyridin-4-yl-benzamide], for which the IC50 under setting [2] lay in the range of 0.5 to 5 µM.

Under setting [2], `CONC(=O)C(N)c1ccc(C(=O)Nc2ccncc2)cc1` (stereo not drawn) [Compound 41, 4-(amino-methoxycarbamoyl-methyl)-N-pyridin-4-yl-benzamide] had a half-inhibitory concentration (IC50) of 0.5 to 5 µM.

For the compound `NC(CNS(=O)(=O)c1ccc(F)cc1)c1ccc(C(=O)Nc2ccncc2)cc1` (stereo not drawn) [Compound 65, 4-[1-amino-2-(4-fluoro-benzenesulfonylamino)-ethyl]-N-pyridin-4-yl-benzamide], the IC50 under setting [1] is less than 0.5 µM.

Compound `NC(CC(=O)N1Cc2ccccc2C1)c1ccc(C(=O)Nc2ccncc2)cc1` (stereo not drawn) [Compound 105, 4-[1-amino-3-(1,3-dihydro-isoindol-2-yl)-3-oxo-propyl]-N-pyridin-4-yl-benzamide] registered an IC50 under setting [3] of less than 0.5 µM.

On to `Cc1ccc(CN2CCC(NC(=O)C(N)c3ccc(C(=O)Nc4ccncc4)cc3)CC2)s1` (stereo not drawn) [Compound 53, 4-{amino-[1-(5-methyl-thiophen-2-ylmethyl)-piperidin-4-ylcarbamoyl]-methyl}-N-pyridin-4-yl-benzamide], for which, under setting [2], the IC50 is 0.5 to 5 µM.

For the compound `COc1ccc(OC)c(S(=O)(=O)NCC(N)c2ccc(C(=O)Nc3ccncc3)cc2)c1` (stereo not drawn) [Compound 72, 4-[1-amino-2-(2,5-dimethoxy-benzenesulfonylamino)-ethyl]-N-pyridin-4-yl-benzamide], the half-maximal inhibitory concentration (IC50) under setting [1] was less than 0.5 µM.

Under setting [1], `Cc1cccc(S(=O)(=O)NCC(N)c2ccc(C(=O)Nc3ccncc3)cc2)c1` (stereo not drawn) [Compound 63] registered an IC50 of less than 0.5 µM.

For `COc1ccc(S(=O)(=O)N(C)C[C@H](N)c2ccc(C(=O)Nc3ccncc3)cc2)cc1` [Compound 153, 4-{(R)1-Amino-2-[(4-methoxy-benzenesulfonyl)-methyl-amino]-ethyl}-N-pyridin-4-yl-benzamide dihydrochloric acid salt], the IC50 (Table 4, compounds 132 to 156) is 5 to 50 µM.

In turn, `CC(NC(=O)C(N)c1ccc(C(=O)Nc2ccncc2)cc1)c1ccccc1` (stereo not drawn) [Compound 2, 4-[amino-(1-phenyl-ethylcarbamoyl)-methyl]-N-pyridin-4-yl-benzamide] came in with an IC50 under setting [2] of less than 0.5 µM.

On to `NC(CC(=O)N1CCN(c2ccccc2)CC1)c1ccc(C(=O)Nc2ccncc2)cc1` (stereo not drawn) [Compound 116, 4-[1-amino-3-oxo-3-(4-phenyl-piperazin-1-yl)-propyl]-N-pyridin-4-yl-benzamide], for which the IC50 under setting [3] was less than 0.5 µM.

`NC(CC(=O)N1CCc2ccc(F)cc2C1)c1ccc(C(=O)Nc2ccncc2)cc1` (stereo not drawn) [Compound 104, 4-[1-amino-3-(7-fluoro-3,4-dihydro-1H-isoquinolin-2-yl)-3-oxo-propyl]-N-pyridin-4-yl-benzamide]: under setting [3], the IC50 is less than 0.5 µM.

Compound `COc1ccc(S(=O)(=O)NCC(N)c2ccc(C(=O)Nc3ccncc3)cc2)cc1` (stereo not drawn) [Compound 70, 4-[1-amino-2-(4-methoxy-benzenesulfonylamino)-ethyl]-N-pyridin-4-yl-benzamide] came in with an IC50 under setting [1] of less than 0.5 µM.

As for `CN(CC(N)c1ccc(C(=O)Nc2ccncc2)cc1)S(=O)(=O)c1ccccc1Cl` (stereo not drawn) [Compound 143, 4-{1-Amino-2-[(2-chloro-benzenesulfonyl)-methyl-amino]-ethyl}-N-pyridin-4-yl-benzamide dihydrochloric acid salt], the IC50 (Table 4, compounds 132 to 156) lay in the range of 0.5 to 5 µM.

`NC(CC(=O)N1CCOCC1c1ccc(Cl)cc1)c1ccc(C(=O)Nc2ccncc2)cc1` (stereo not drawn) [Compound 100, 4-{1-amino-3-[3-(4-chloro-phenyl)-morpholin-4-yl]-3-oxo-propyl}-N-pyridin-4-yl-benzamide] showed a half-maximal inhibitory concentration (IC50) under setting [3] of less than 0.5 µM.

In the case of `CC(C)C(C)NC(=O)C(N)c1ccc(C(=O)Nc2ccncc2)cc1` (stereo not drawn) [Compound 23, 4-[amino-(1,2-dimethyl-propylcarbamoyl)-methyl]-N-pyridin-4-yl-benzamide], the IC50 under setting [2] fell in the range of 0.5 to 5 µM.

As for `NC(c1ccc(C(=O)Nc2ccncc2)cc1)C1CCCN1S(=O)(=O)c1cccc(F)c1` (stereo not drawn) [Compound 137, 4-{Amino-[1-(3-fluoro-benzenesulfonyl)-pyrrolidin-2-yl]-methyl}-N-pyridin-4-yl-benzamide dihydrochloric acid salt], the IC50 (Table 4, compounds 132 to 156) lay within 0.5 to 5 µM.

Turning to `Cc1nn(C)c(Cl)c1S(=O)(=O)NCC(N)c1ccc(C(=O)Nc2ccncc2)cc1` (stereo not drawn) [Compound 80, 4-[1-amino-2-(5-chloro-1,3-dimethyl-1H-pyrazole-4-sulfonylamino)-ethyl]-N-pyridin-4-yl-benzamide], under setting [1], the IC50 was in the range of 0.5 to 5 µM.

On to `NC(c1ccc(C(=O)Nc2ccncc2)cc1)C1CCCN1S(=O)(=O)c1ccc(F)cc1` (stereo not drawn) [Compound 138, 4-{Amino-[1-(4-fluoro-benzenesulfonyl)-pyrrolidin-2-yl]-methyl}-N-pyridin-4-yl-benzamide dihydrochloric acid salt], for which the IC50 (Table 4, compounds 132 to 156) was in the range of 0.5 to 5 µM.

`COc1ccc(S(=O)(=O)N(C)CC(N)c2ccc(C(=O)Nc3ccncc3)cc2)cc1` (stereo not drawn) [Compound 146, 4-{1-Amino-2-[(4-methoxy-benzenesulfonyl)-methyl-amino]-ethyl}-N-pyridin-4-yl-benzamide dihydrochloric acid salt] gave an IC50 (Table 4, compounds 132 to 156) of less than 0.5 µM.

Compound `CC(C)N1CCN(C(=O)CC(N)c2ccc(C(=O)Nc3ccncc3)cc2)CC1` (stereo not drawn) [Compound 114, 4-[1-amino-3-(4-isopropyl-piperazin-1-yl)-3-oxo-propyl]-N-pyridin-4-yl-benzamide] registered an IC50 under setting [3] of less than 0.5 µM.

Under setting [3], `NC(CC(=O)N1CCN(Cc2ccccc2F)CC1)c1ccc(C(=O)Nc2ccncc2)cc1` (stereo not drawn) [Compound 122, 4-{1-amino-3-[4-(2-fluoro-benzyl)-piperazin-1-yl]-3-oxo-propyl}-N-pyridin-4-yl-benzamide] came in with an IC50 of less than 0.5 µM.

Under setting [3], `NC(CC(=O)N1CCC(c2c[nH]c3ccccc23)CC1)c1ccc(C(=O)Nc2ccncc2)cc1` (stereo not drawn) [Compound 125, 4-{1-amino-3-[4-(1H-indol-3-yl)-piperidin-1-yl]-3-oxo-propyl}-N-pyridin-4-yl-benzamide] gave a half-maximal inhibitory concentration (IC50) of less than 0.5 µM.

Under setting [1], `NC(CNS(=O)(=O)c1ccc(Cl)cc1)c1ccc(C(=O)Nc2ccncc2)cc1` (stereo not drawn) [Compound 67, 4-[1-amino-2-(4-chloro-benzenesulfonylamino)-ethyl]-N-pyridin-4-yl-benzamide] showed an IC50 of less than 0.5 µM.

Under setting [3], `NC(CC(=O)N1CCc2ccccc2C1)c1ccc(C(=O)Nc2ccncc2)cc1` (stereo not drawn) [Compound 131, 4-[1-amino-3-(3,4-dihydro-1H-isoquinolin-2-yl)-3-oxo-propyl]-N-pyridin-4-yl-benzamide] showed an IC50 of less than 0.5 µM.

Turning to `CC1CC(C)CN(C(=O)CC(N)c2ccc(C(=O)Nc3ccncc3)cc2)C1` (stereo not drawn) [Compound 108, 4-[1-amino-3-(3,5-dimethyl-piperidin-1-yl)-3-oxo-propyl]-N-pyridin-4-yl-benzamide], the IC50 under setting [3] was less than 0.5 µM.

Under setting [1], `NC(CNS(=O)(=O)c1ccc(Oc2ccccc2)cc1)c1ccc(C(=O)Nc2ccncc2)cc1` (stereo not drawn) [Compound 74, 4-[1-amino-2-(4-phenoxy-benzenesulfonylamino)-ethyl]-N-pyridin-4-yl-benzamide] showed a half-inhibitory concentration (IC50) of 0.5 to 5 µM.

`NC(C(=O)NCC1CCCO1)c1ccc(C(=O)Nc2ccncc2)cc1` (stereo not drawn) [Compound 37, 4-{amino-[(tetrahydro-furan-2-ylmethyl)-carbamoyl]-methyl}-N-pyridin-4-yl-benzamide]: the 50% inhibitory concentration (IC50) under setting [2] was in the range of 0.5 to 5 µM.

In turn, `N[C@H](CC(=O)N1CCC[C@H]1c1cccc(F)c1)c1ccc(C(=O)Nc2ccncc2)cc1` [Compound 150, 4-{(R)-1-Amino-3-[(S)-2-(3-fluoro-phenyl)-pyrrolidin-1-yl]-3-oxo-propyl}-N-pyridin-4-yl-benzamide dihydrochloric acid salt] had a 50% inhibitory concentration (IC50) (Table 4, compounds 132 to 156) of less than 0.5 µM.

On to `NC(C(=O)N1CCCC(CO)C1)c1ccc(C(=O)Nc2ccncc2)cc1` (stereo not drawn) [Compound 36, 4-[1-amino-2-(3-hydroxymethyl-piperidin-1-yl)-2-oxo-ethyl]-N-pyridin-4-yl-benzamide], for which the IC50 under setting [2] lay within 0.5 to 5 µM.
